Reference: patent US4329352A, “Piperidine derivatives of 3-hydroxy-thiophene-2-carboxylic acid esters and pharmaceutical formulations containing these compounds” (BASF Aktiengesellschaft, priority 1979, dated 1982)
Read-outs that look alike come from different tables or passages of the source.

Legend:
[1] = system: isolated left atria of male guineapigs; test: Anti-arrhythmic activity on isolated left guineapig atria (maximum driving rate); parameters: species or system guineapig (Pirbright white); settings: for R.A. = relative activity (maximum sequence frequency): Procainamide = 1.00; for Maximum sequence frequency EC 50%: concentration which produces a 50% decrease in the maximum sequence frequency: Tyrode's solution pH 7.4, 32° C.
Protocol: As a criterion of the anti-arrhythmic action, the frequency (in Hz) at which the atria are just still able to follow the sequence of pulses (the maximum driving rate) is determined by automatic continuous increase in frequency. The concentration which produces a 50% decrease in maximum driving rate, ie. the ED 50%, is calculated from the linear relationship between log concentration (mg/l) and relative decrease in maximum driving rate (Δ%).

[2] = system: isolated left atria of male guineapigs; test: Negatively inotropic effect on isolated left guineapig atria (decrease in contraction amplitude); parameters: species or system guineapig (Pirbright white); settings: for R.A. = relative activity (force of contraction): Procainamide = 1.00; for Force of contraction EC 25%: concentration which produces a 25% decrease in the force of contraction: Tyrode's solution pH 7.4, 32° C.
Protocol: Atria suspended in an organ bath (volume 125 ml) containing carbogen-saturated Tyrode's solution (pH 7.4, 32° C.) are prestressed with 1.0 g and are driven by square wave pulses of 1 Hz base rhythm and double stimulation threshold values (rheo base: 0.2-1.4 V, chronaxia: 0.3-0.5 msec).
Further, the concentration which produces a 25% decrease in amplitude, ie. the EC 25%, is determined, as a measure of the negatively inotropic effect, from the linear relationship between log concentration (mg/l) and relative change in contraction amplitude (Δ%).

[3] = system: aconitine-induced arrhythmia; test: in vivo; format: in vivo, rat (Sprague Dawley)
Protocol: (§1) To determine the anti-arrhythmic activity, the substance is administered orally to rats (Sprague Dawley, weight 200-250 g) 45 minutes before the start of narcosis. The animals are narcotized with 100 mg/kg of sodium thiobutabarbital administered intraperitone-ally. The arrhythmogenic substance is aconitine which is infused intravenously, at a dosage rate of 0.005 mg/kg×min, 60 minutes after administration of the novel substance. In the case of untreated animals (N=52), arrhythmias are noted in the electrocardiogram after 2.74±0.07 min, and the occurrence of these can be delayed by anti-arrhythmic agents, to an extent which depends on the dose.
(§2) The dose which prolongs the infusion duration by 50%, ie. the ED 50%, is determined from the linear relationship between log dose (mg/kg) of test substance and relative prolongation of aconitine infusion duration (Δ%).
(§3) For further characterization of the substance, the anti-arrhythmic effect of the maximum tolerated dose is determined from the decimal-geometric dosage progression (factor ^3 .cuberoot.10) used in the experiments. In addition, the dose at which toxic symptoms (changes in the initial ECG, cyanosis or cramp) occur is determined. Moreover, the anti-arrhythmic activity of the compounds according to the invention is determined on isolated left atria of male guineapigs (Pirbright white, weight 350-450 g).

in vivo = format: in vivo, rat (Sprague Dawley); settings: rat, in vivo; rats, oral; decimal-geometric dosage progression; read-out: Maximum effect: Dose (maximum tolerated dose)
Protocol: as §1, §2, §3

[4] = Toxicity in rats, oral administration: dose at which toxic symptoms (changes in the initial ECG, cyanosis or cramp) occur; format: in vivo, rat (Sprague Dawley); settings: for TD50 / selectivity ratio: rat, in vivo; for selectivity ratio: read-out: Q (therapeutic range): quotient of toxic dose and anti-arrhythmically effective dose (ED 50%)
Protocol: as §1, §3

[5] = isolated guineapig atria, compared with procainamide
[6] = rats, oral, maximum tolerated dose
[7] = rats, oral, greater than procainamide

SMILES	R.A. = relative activity (maximum sequence frequency) ([1]; isolated guineapig atria)	anti-arrhythmic effect on isolated guineapig atria, relative to procainamide ([1]; as great as that of procainamide)	Q: quotient of EC 25% force of contraction decrease : EC 50% maximum driving rate ([1]; isolated guineapig atria)	Maximum sequence frequency EC 50%: concentration which produces a 50% decrease in the maximum sequence frequency ([1]; isolated guineapig atria)	difference between anti-arrhythmic and negatively inotropic effect (quotient EC 25% : EC 50%), in words [1, 5]	therapeutic range as far as effects on guineapig atria are concerned, in words [1, 5]	R.A. = relative activity (force of contraction) [2]	Force of contraction EC 25%: concentration which produces a 25% decrease in the force of contraction [2]	R.A. = relative activity (effective dose) ([3]; Procainamide = 1.00, rats, oral)	R.M.E. = relative maximum effect ([3]; Procainamide = 1.00, rats, oral, maximum tolerated dose)	ED50 ([3]; Rattus norvegicus, po, read-out: ED 50%: dose which prolongs the duration of aconitine infusion by 50%)	Maximum effect: prolongation of duration of aconitine infusion, Δ %, at the maximum tolerated dose [3, 6]	anti-arrhythmic effect on aconitine-induced arrhythmia, relative to procainamide [3, 7]	MTD (in vivo)	TD50 ([4]; rats, oral, changes in initial ECG, cyanosis or cramp, read-out: Toxicity: dose whose administration produces the first toxic symptoms)	selectivity ratio ([4]; rats, oral)	therapeutic range (toxic dose / ED 50%), relative to procainamide [4, 7]	TD50 ([4]; po)
COC(=O)c1sccc1OCC(O)CN1CCC(O)(c2ccccc2)CC1 (stereo not shown) [Example 1, 3-[2-hydroxy-3-(4-phenyl-4-hydroxy-piperidino)-propoxy]-thiophene-2-carboxylic acid methyl ester]	68.7	69 times	2.6	1.47 µg/mL	substantially greater than for procainamide	greater therapeutic range	14.8	3.80 µg/mL	3.36	2.19	46.8 mg/kg	296%	3 to 4 times	215 mg/kg	464 mg/kg	9.9	1.6 times	–
CCN(CC)CCNC(=O)c1ccc(N)cc1 [Procainamide, procainamide, reference compound]	1.00	–	0.56	101 µg/mL	–	–	1.00	56.4 µg/mL	–	–	–	135%	–	–	–	6.4	–	1000 mg/kg
